Results as given in paper PMC8268887, “Peptide/β-Peptoid Hybrids with Ultrashort PEG-Like Moieties: Effects on Hydrophobicity, Antibacterial Activity and Hemolytic Properties” (International Journal of Molecular Sciences, 2021).
In brackets after ≈: the same amount, converted by molar mass.

Columns and labels:
[1] = Hydrophobicity by retention in analytical RP-HPLC (% MeCN at peak elution); format: physicochemical; settings: for % MeCN at Elution, Aeris Peptide: Phenomenex Aeris Peptide XB-C18 column; for % MeCN at Elution, Aeris Peptide / % MeCN at Elution, Luna Omega / % MeCN at Elution, Supelco Discovery: gradient 0→60% B during 15 min; for % MeCN at Elution, Luna: Phenomenex Luna C18(2) column, RP-HPLC gradient 0→60% B during 15 min, relative hydrophobicity; for % MeCN at Elution, Luna Omega: Phenomenex Luna Omega Polar C18 column; for % MeCN at Elution, Supelco Discovery: Supelco Discovery BIO Wide pore C18 column
Experimental: For each peptide/β-peptoid hybrid oligomer, the retention time in RP-HPLC was measured on four different columns (details shown in Table 2): Phenomenex Luna C18(2) column (recommended for hydrophobic compounds [49]), Phenomenex Luna Omega Polar C18 column (recommended for both very polar and non-polar compounds [50]) as well as Phenomenex Aeris Peptide XB-C18 [51] and Sigma-Aldrich Supelco Discovery BIO Wide pore C18 [52] columns, which both are recommended for analysis of peptides. The retention times of the compounds on each column were used to calculate the acetonitrile concentration at peak elution (denoted merely as % MeCN; Table 1). As expected, the % MeCN for each compound varied somewhat between the four columns.
Starting materials and solvents were acquired from commercial suppliers (Iris Biotech, Markredwitz, Germany; Fluorochem, Hadfield, UK; and Merck, Darmstadt, Germany) and used without further purification. Water used for analytical and preparative high-performance liquid chromatography (HPLC) was filtered through a 0.22-μm capsule filter using an Evoqua LaboStar Pro TWF UV system. Purity and retention time of each peptidomimetic were determined by analytical HPLC by using a Phenomenex Luna Omega Polar C18 column (150 × 4.6 mm; particle size: 3 μm; pore size: 100 Å) on a Shimadzu Prominence and Shimadzu Nexera system using an aqueous acetonitrile (MeCN, VWR, Søborg, Denmark) gradient with 0.1% trifluoroacetic acid (TFA, Iris Biotech, Markredwitz, Germany) added (eluent A: 5:95 MeCN–H2O + 0.1% TFA, eluent B: 95:5 MeCN–H2O + 0.1% TFA); a flow rate of 0.8 mL/min was used. For elution of peptidomimetics, a linear gradient of 0% to 60% B during 15 min was used with UV detection at λ = 220 nm. […] Retention time of each peptidomimetic was also determined by using a Phenomenex Luna C18(2) column (150 × 4.6 mm; particle size: 3 μm; pore size: 100 Å), a Phenomenex Aeris Peptide XB-C18 column (150 × 4.6 mm; particle size: 3.6 μm; pore size: 100 Å), and a Sigma-Aldrich Supelco Discovery BIO Wide pore C18 column (150 × 4.6 mm, particle size: 3 µm; pore size: 300 Å). For each peptidomimetic, the percentage of MeCN at peak elution was calculated from the retention time by using the following formula:(1) %MeCN =0.95 (0.6Rt/15 min)+0.05 (1−0.6Rt/15 min)

[2] = system: P. aeruginosa NMI 7197/19; format: cell-based, Pseudomonas aeruginosa; settings: NMI 7197/19, 20 h
Experimental: (§1) MIC values of the peptidomimetics were evaluated by using the modified Hancock lab protocol in non-binding polystyrene microtiter plates. Bacterial suspensions of ~5 × 10^5 CFU/mL in Mueller-Hinton broth (Difco, Sparks, MD, USA) were prepared with Mg^2+ and Ca^2+ concentrations of 4 mg/L each. The compounds were dissolved in H2O and diluted in 0.01% acetic acid, 0.2% BSA (final concentration). Aliquots (11 µL) of test compounds were then transferred to wells containing bacterial suspensions (100 µL). Low-binding sterile tubes and tips (Axygen, Union City, CA, USA) were used for preparation and transfer of the solutions of the compounds. Following incubation for 20 h of the covered plates at 35 °C (±2 °C) with circular shaking at 180 rpm, the MICs were read.

P. aeruginosa PAO1 = format: cell-based, Pseudomonas aeruginosa; settings: PAO1, 20 h
Experimental: as §1

A. baumannii ATCC 19606 = format: cell-based, Acinetobacter baumannii; settings: ATCC 19606, 20 h
Experimental: as §1

A. baumannii NMI 3658/17 = format: cell-based, Acinetobacter baumannii; settings: NMI 3658/17, 20 h
Experimental: as §1

S. aureus ATCC 29213 = format: cell-based, Staphylococcus aureus; settings: ATCC 29213, 20 h
Experimental: as §1

[3] = Determination of hemolytic activity; format: cell-based; settings: red blood cell suspension in PBS buffer, human red blood cells at 400 µg/mL, 37 °C
Experimental: The lysis of human red blood cells was measured almost as previously described, albeit with modifications. In brief, a suspension of freshly drawn human red blood cells (hRBCs) was washed three times with PBS buffer and centrifuged two times for 5 min at 2500 rpm. A two-fold serial dilution of compounds in PBS buffer was prepared. Plates (conical-bottomed 96-well plates) with three replicate wells per dilution, each containing 1% red blood cell suspension, were prepared and dosed with the test compound to achieve a final concentration of 400 μg/mL in a total volume of 100 μL. The plates were incubated (37 °C) for 60 min with mild agitation, and then the cells were pelleted by centrifugation at 1500 rpm for 5 min. The supernatants (50 μL) were then transferred to a fresh 96-well plate, and the concentration of hemoglobin was detected by measuring the OD at 405 nm. The OD of cells incubated with 1% SDS defined 100% hemolysis, while the OD of cells incubated with PBS buffer defined 0% hemolysis. The concentration tested was 400 μg/mL (only average values are stated in Table 5). The percent hemolysis was calculated by using the formula:(3) Hemolysis (%)=100×[Asample−Aneg.control/Apos.control−Aneg.control]

[4] = Antiproliferative activity on HepG2 cell line (MTT assay); format: cell-based; settings: HepG2 cells; at 1280 µg/mL, value in parenthesis; read-out: HepG2 cell viability at highest concentration tested
Experimental: (§2) Effect of compounds on mammalian cell viability was estimated on the HepG2 cell line ATCC HB-8065. In brief, HepG2 cells were seeded into flat-bottomed 96-well plates at a concentration of 5000 cells per well. Subsequently, the cells were incubated for 24 h in a humidified incubator (5% CO2, 37 °C). Then, the medium was removed, and the cells were incubated for 48 h in a humidified incubator (5% CO2, 37 °C) with peptidomimetics in serial dilutions. Then, an 3-(4,5-dimethylthiazol-2-yl)-2,5-diphenyltetrazolium bromide (MTT) assay was performed as previously described. In brief, after incubation with the test compounds, the culture medium was removed, and then fresh medium with 0.2 mg/mL MTT was added into each well of the plate. The cells were then incubated (3 h, 37 °C, 5% CO2), followed by removal of the medium with MTT and addition of 200 μL dimethyl sulfoxide at once to each sample. Absorbance of MTT was measured using the spectrophotometer TECAN Infinite M1000 at 540 nm. The relative viability was calculated by using the formula: ODtreated cells × 100/ODcontrol cells. The IC50 values are calculated by using the program Graph Pad Prism® 5.0. For all compounds, the test range was 10–1280 μg/mL.

[5] = system: HepG2 cell line ATCC HB-8065; assay: as above; format: cell-based; settings: inhibition of growth of HepG2 cells, 48 h, MTT; highest concentration tested 1280 µg/mL
Experimental: as §2

Row | Compound | % MeCN at Elution, Aeris Peptide [1] [% MeCN] | % MeCN at Elution, Luna [1] [% MeCN] | % MeCN at Elution, Luna Omega [1] [% MeCN] | % MeCN at Elution, Supelco Discovery [1] [% MeCN] | MIC, P. aeruginosa NMI 7197/19 [2] [µg/mL] | MIC, PA (P. aeruginosa PAO1) [µg/mL] | MIC, AB (A. baumannii ATCC 19606) [µg/mL] | MIC, A. baumannii NMI 3658/17 (A. baumannii NMI 3658/17) [µg/mL] | MIC, SA (S. aureus ATCC 29213) [µg/mL] | hemolysis at 60 min [3] [%] | viability at 48 h [4] [%] | HepG2 IC50 [5] [µg/mL] | MIC against A. baumannii (A. baumannii ATCC 19606) [µM]
1 | NCCCC[C@H](NC(=O)CCN(Cc1ccc(F)cc1)C(=O)[C@H](CCCCN)NC(=O)CCN(Cc1ccc(F)cc1)C(=O)[C@H](CCCCN)NC(=O)CCN(Cc1ccc(F)cc1)C(=O)[C@H](CCCCN)NC(=O)CCN(Cc1ccc(F)cc1)C(=O)[C@H](CCCCN)NC(=O)CCN(Cc1ccc(F)cc1)C(=O)[C@@H](N)CCCCN)C(=O)N(CCC(N)=O)Cc1ccc(F)cc1 [Compound 1, H-[Lys-βNPhe(4-F)]6-NH2] | 39.4 | 41.6 | 41.9 | 41.7 | >64 | 32 to 64 | 8 to 16 | 4 (≈ 2.15 µM) | 16 (≈ 8.6 µM) | 6.6 | 0 | 464 | 
2 | NCCCC[C@H](NC(=O)CCN(Cc1ccc(F)cc1)C(=O)[C@H](CCCCN)NC(=O)CCN(Cc1ccc(F)cc1)C(=O)[C@H](CCCCN)NC(=O)COCCOCCNC(=O)CCN(Cc1ccc(F)cc1)C(=O)[C@H](CCCCN)NC(=O)CCN(Cc1ccc(F)cc1)C(=O)[C@H](CCCCN)NC(=O)CCN(Cc1ccc(F)cc1)C(=O)[C@@H](N)CCCCN)C(=O)N(CCC(N)=O)Cc1ccc(F)cc1 [Compound 7, H-[X]3-sPEG2-[X]3-NH2] | 39.4 | 41.4 | 41.8 | 41.6 | >64 | 16 to 32 | 4 (≈ 1.99 µM) | 4 (≈ 1.99 µM) |  | 6.1 | 10 | 619 | 
3 | NCCCC[C@H](NC(=O)CCN(Cc1ccc(F)cc1)C(=O)[C@H](CCCCN)NC(=O)CCN(Cc1ccc(F)cc1)C(=O)[C@H](CCCCN)NC(=O)CCOCCOCCOCCOCCNC(=O)CCN(Cc1ccc(F)cc1)C(=O)[C@H](CCCCN)NC(=O)CCN(Cc1ccc(F)cc1)C(=O)[C@H](CCCCN)NC(=O)CCN(Cc1ccc(F)cc1)C(=O)[C@@H](N)CCCCN)C(=O)N(CCC(N)=O)Cc1ccc(F)cc1 [Compound 9, H-[X]3-sPEG4-[X]3-NH2] | 39.8 | 41.8 | 42.3 | 42.0 | >64 | 32 (≈ 15.2 µM) | 4 to 8 | 4 to 8 | >64 | 7.1 | 9 | 693 | 
4 | NCCCC[C@H](NC(=O)CCN(Cc1ccc(F)cc1)C(=O)[C@H](CCCCN)NC(=O)CCN(Cc1ccc(F)cc1)C(=O)[C@H](CCCCN)NC(=O)CCOCCOCCOCCOCCOCCOCCNC(=O)CCN(Cc1ccc(F)cc1)C(=O)[C@H](CCCCN)NC(=O)CCN(Cc1ccc(F)cc1)C(=O)[C@H](CCCCN)NC(=O)CCN(Cc1ccc(F)cc1)C(=O)[C@@H](N)CCCCN)C(=O)N(CCC(N)=O)Cc1ccc(F)cc1 [Compound 10, H-[X]3-sPEG6-[X]3-NH2] | 40.3 | 42.3 | 42.8 | 42.5 | >64 | 16 (≈ 7.28 µM) | 4 (≈ 1.82 µM) | 4 (≈ 1.82 µM) | >64 | 6.3 | 27 | 800 | 1.3 (≈ 2.86 µg/mL)
5 | NCCCC[C@H](NC(=O)CCN(Cc1ccc(F)cc1)C(=O)[C@H](CCCCN)NC(=O)CCN(Cc1ccc(F)cc1)C(=O)[C@H](CCCCN)NC(=O)COCCN)C(=O)N(CCC(=O)NCCOCC(=O)N[C@@H](CCCCN)C(=O)N(CCC(=O)N[C@@H](CCCCN)C(=O)N(CCC(=O)N[C@@H](CCCCN)C(=O)N(CCC(=O)NCCOCC(N)=O)Cc1ccc(F)cc1)Cc1ccc(F)cc1)Cc1ccc(F)cc1)Cc1ccc(F)cc1 [Compound 11, H-sPEG1-[X]3-sPEG1-[X]3-sPEG1-NH2] | 38.7 | 40.8 | 41.4 | 40.8 | >64 | 32 (≈ 14.8 µM) | 4 to 8 | 8 (≈ 3.7 µM) | >64 | 4.6 |  |  | 
6 | NCCCC[C@H](NC(=O)CCN(Cc1ccc(F)cc1)C(=O)[C@H](CCCCN)NC(=O)CCN(Cc1ccc(F)cc1)C(=O)[C@H](CCCCN)NC(=O)COCCOCCOCCN)C(=O)N(CCC(=O)NCCOCCOCCOCC(=O)N[C@@H](CCCCN)C(=O)N(CCC(=O)N[C@@H](CCCCN)C(=O)N(CCC(=O)N[C@@H](CCCCN)C(=O)N(CCC(=O)NCCOCCOCCOCC(N)=O)Cc1ccc(F)cc1)Cc1ccc(F)cc1)Cc1ccc(F)cc1)Cc1ccc(F)cc1 [Compound 13, H-sPEG3-[X]3-sPEG3-[X]3-sPEG3-NH2] | 39.9 | 41.9 | 42.8 | 42.1 | >64 | >64 | 8 to 16 | 16 (≈ 6.59 µM) | >64 | 7.8 |  |  | 
